Source: PubChem BioAssay (NCI)
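These data come from cells grown in 96-well plates and exposed to compound for 48 hours at five concentrations. At the TGI there is no net growth.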

Legend:
Test in all cases: growth of human tumour cells (NCI), 48 h
SF-539 CNS = test system: SF-539 CNS
K-562 leukemia = test system: K-562 leukemia
SK-MEL-2 melanoma = test system: SK-MEL-2 melanoma
MCF7 breast = test system: MCF7 breast
KM12 colon = test system: KM12 colon
IGROV1 ovarian = test system: IGROV1 ovarian
M14 melanoma = test system: M14 melanoma
T-47D breast = test system: T-47D breast
SF-295 CNS = test system: SF-295 CNS
MDA-MB-435 = test system: MDA-MB-435
U251 CNS = test system: U251 CNS
OVCAR-8 ovarian = test system: OVCAR-8 ovarian
UO-31 renal = test system: UO-31 renal
HL-60(TB) leukemia = test system: HL-60(TB) leukemia
SNB-75 CNS = test system: SNB-75 CNS
786-0 renal = test system: 786-0 renal
HCC-2998 colon = test system: HCC-2998 colon
NCI-H522 lung = test system: NCI-H522 lung
SF-268 CNS = test system: SF-268 CNS
A498 renal = test system: A498 renal
SW-620 colon = test system: SW-620 colon
HT29 colon = test system: HT29 colon
MALME-3M melanoma = test system: MALME-3M melanoma
PC-3 prostate = test system: PC-3 prostate
DU-145 prostate = test system: DU-145 prostate
SN12C renal = test system: SN12C renal
OVCAR-4 ovarian = test system: OVCAR-4 ovarian
RPMI-8226 leukemia = test system: RPMI-8226 leukemia
UACC-257 melanoma = test system: UACC-257 melanoma
HS 578T breast = test system: HS 578T breast
EKVX NSCLC = test system: EKVX NSCLC
A549 NSCLC = test system: A549 NSCLC
NCI-H226 lung = test system: NCI-H226 lung
NCI-H23 lung = test system: NCI-H23 lung
HCT-116 colon = test system: HCT-116 colon
TK-10 renal = test system: TK-10 renal
ACHN renal = test system: ACHN renal
OVCAR-5 ovarian = test system: OVCAR-5 ovarian
MDA-N = test system: MDA-N
CAKI-1 renal = test system: CAKI-1 renal
HCT-15 colon = test system: HCT-15 colon
NCI/ADR-RES ovarian = test system: NCI/ADR-RES ovarian
MDA-MB-231 breast = test system: MDA-MB-231 breast
UACC-62 melanoma = test system: UACC-62 melanoma
SNB-19 CNS = test system: SNB-19 CNS
LOX IMVI melanoma = test system: LOX IMVI melanoma
SK-MEL-5 melanoma = test system: SK-MEL-5 melanoma
HOP-62 NSCLC = test system: HOP-62 NSCLC
SK-OV-3 ovarian = test system: SK-OV-3 ovarian
COLO 205 colon = test system: COLO 205 colon
OVCAR-3 ovarian = test system: OVCAR-3 ovarian
MOLT-4 leukemia = test system: MOLT-4 leukemia
BT-549 breast = test system: BT-549 breast
RXF 393 renal = test system: RXF 393 renal
SK-MEL-28 melanoma = test system: SK-MEL-28 melanoma
CCRF-CEM leukemia = test system: CCRF-CEM leukemia

Measured: TGI

N#Cc1n[nH]n(-c2ccccc2)c1=O
> 100 µM: SF-539 CNS | K-562 leukemia | SK-MEL-2 melanoma | MCF7 breast | KM12 colon | IGROV1 ovarian | M14 melanoma | T-47D breast | SF-295 CNS | MDA-MB-435 | U251 CNS | OVCAR-8 ovarian | UO-31 renal | HL-60(TB) leukemia | SNB-75 CNS | 786-0 renal | HCC-2998 colon | NCI-H522 lung | SF-268 CNS | A498 renal | SW-620 colon | HT29 colon | MALME-3M melanoma | PC-3 prostate | DU-145 prostate | SN12C renal | OVCAR-4 ovarian | RPMI-8226 leukemia | UACC-257 melanoma | HS 578T breast | EKVX NSCLC | A549 NSCLC | NCI-H226 lung | NCI-H23 lung | HCT-116 colon | TK-10 renal | ACHN renal | OVCAR-5 ovarian | MDA-N | CAKI-1 renal | HCT-15 colon | NCI/ADR-RES ovarian | MDA-MB-231 breast | UACC-62 melanoma | SNB-19 CNS | LOX IMVI melanoma | SK-MEL-5 melanoma | HOP-62 NSCLC | SK-OV-3 ovarian | COLO 205 colon | OVCAR-3 ovarian | MOLT-4 leukemia | BT-549 breast | RXF 393 renal | SK-MEL-28 melanoma

CCCCCC/C=C\CCCCCCCCCc1cccc(OC)c1O
> 100 µM: SF-539 CNS | K-562 leukemia | SK-MEL-2 melanoma | MCF7 breast | KM12 colon | IGROV1 ovarian | M14 melanoma | T-47D breast | SF-295 CNS | MDA-MB-435 | U251 CNS | OVCAR-8 ovarian | UO-31 renal | HL-60(TB) leukemia | SNB-75 CNS | 786-0 renal | NCI-H522 lung | SF-268 CNS | A498 renal | SW-620 colon | HT29 colon | MALME-3M melanoma | PC-3 prostate | DU-145 prostate | SN12C renal | RPMI-8226 leukemia | UACC-257 melanoma | HS 578T breast | EKVX NSCLC | A549 NSCLC | NCI-H226 lung | NCI-H23 lung | HCT-116 colon | TK-10 renal | ACHN renal | OVCAR-5 ovarian | MDA-N | CAKI-1 renal | HCT-15 colon | NCI/ADR-RES ovarian | CCRF-CEM leukemia | MDA-MB-231 breast | UACC-62 melanoma | SNB-19 CNS | LOX IMVI melanoma | SK-MEL-5 melanoma | HOP-62 NSCLC | SK-OV-3 ovarian | COLO 205 colon | MOLT-4 leukemia | BT-549 breast | RXF 393 renal | SK-MEL-28 melanoma
